# Columns and labels:
# Assay in all cases: KINOMEscan competition binding
# Conditions in all cases: compound 10.0 µM
# AXL (human) = AXL (human) (UniProt P30530)
# BRSK1 (human) = BRSK1 (human) (UniProt Q8TDC3)
# CAMK2D (human) = CAMK2D (human) (UniProt Q13557)
# CASK (human) = CASK (human) (UniProt O14936)
# CHUK (human) = CHUK (human) (UniProt O15111)
# CLK1 (human) = CLK1 (human) (UniProt P49759)
# CSNK1A1 (human) = CSNK1A1 (human) (UniProt P48729)
# CSNK2A1 (human) = CSNK2A1 (human) (UniProt P68400)
# CSNK2A2 (human) = CSNK2A2 (human) (UniProt P19784)
# DDR2 (human) = DDR2 (human) (UniProt Q16832)
# DYRK1A (human) = DYRK1A (human) (UniProt Q13627)
# EGFR (human) = EGFR (human) (UniProt P00533)
# EIF2AK1 (human) = EIF2AK1 (human) (UniProt Q9BQI3)
# EPHA8 (human) = EPHA8 (human) (UniProt P29322)
# FLT4 (human) = FLT4 (human) (UniProt P35916)
# IRAK1 (human) = IRAK1 (human) (UniProt P51617)
# LIMK2 (human) = LIMK2 (human) (UniProt P53671)
# MAP2K1 (human) = MAP2K1 (human) (UniProt Q02750)
# MAP2K2 (human) = MAP2K2 (human) (UniProt P36507)
# MAP2K3 (human) = MAP2K3 (human) (UniProt P46734)
# MAP3K9 (human) = MAP3K9 (human) (UniProt P80192)
# MAPK1 (human) = MAPK1 (human) (UniProt P28482)
# MAPK12 (human) = MAPK12 (human) (UniProt P53778)
# MARK1 (human) = MARK1 (human) (UniProt Q9P0L2)
# [1] = tested on: MET (human), P08581 [Y1235D]
# MST1R (human) = MST1R (human) (UniProt Q04912)
# PAK1 (human) = PAK1 (human) (UniProt Q13153)
# PIM3 (human) = PIM3 (human) (UniProt Q86V86)
# RET (human) = RET (human) (UniProt P07949)
# [2] = tested on: RET (human), P07949 [V804M]
# RIOK3 (human) = RIOK3 (human) (UniProt O14730)
# ROCK2 (human) = ROCK2 (human) (UniProt O75116)
# RPS6KA5 KD2 (human) = RPS6KA5 KD2 (human) (UniProt O75582)
# SGK110 (human) = SGK110 (human) (UniProt P0C264)
# SRC (human) = SRC (human) (UniProt P12931)
# SRPK1 (human) = SRPK1 (human) (UniProt Q96SB4)
# TAOK2 (human) = TAOK2 (human) (UniProt Q9UL54)
# TNK2 (human) = TNK2 (human) (UniProt Q07912)
# [3] = biological target: TYK2 JH2 pseudokinase (human) (UniProt P29597)
# VRK2 (human) = VRK2 (human) (UniProt Q86Y07)
# Sequence of PAK1 (human) (Q13153 whole entry, looked up): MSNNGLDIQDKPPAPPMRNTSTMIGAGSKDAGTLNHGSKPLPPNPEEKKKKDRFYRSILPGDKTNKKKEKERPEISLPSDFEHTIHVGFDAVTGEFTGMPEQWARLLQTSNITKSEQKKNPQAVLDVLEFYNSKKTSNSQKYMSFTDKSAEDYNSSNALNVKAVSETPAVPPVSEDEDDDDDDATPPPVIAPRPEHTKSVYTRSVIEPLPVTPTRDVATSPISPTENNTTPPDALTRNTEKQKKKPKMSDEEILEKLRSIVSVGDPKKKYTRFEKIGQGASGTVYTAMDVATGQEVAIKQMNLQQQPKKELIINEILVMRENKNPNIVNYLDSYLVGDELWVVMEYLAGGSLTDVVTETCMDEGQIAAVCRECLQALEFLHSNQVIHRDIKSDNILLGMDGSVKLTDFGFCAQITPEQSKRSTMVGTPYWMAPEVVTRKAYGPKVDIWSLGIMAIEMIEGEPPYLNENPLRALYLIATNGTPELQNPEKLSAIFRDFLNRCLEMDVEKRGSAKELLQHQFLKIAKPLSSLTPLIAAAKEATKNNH
# Sequence of CSNK1A1 (human) (P48729 whole entry, looked up): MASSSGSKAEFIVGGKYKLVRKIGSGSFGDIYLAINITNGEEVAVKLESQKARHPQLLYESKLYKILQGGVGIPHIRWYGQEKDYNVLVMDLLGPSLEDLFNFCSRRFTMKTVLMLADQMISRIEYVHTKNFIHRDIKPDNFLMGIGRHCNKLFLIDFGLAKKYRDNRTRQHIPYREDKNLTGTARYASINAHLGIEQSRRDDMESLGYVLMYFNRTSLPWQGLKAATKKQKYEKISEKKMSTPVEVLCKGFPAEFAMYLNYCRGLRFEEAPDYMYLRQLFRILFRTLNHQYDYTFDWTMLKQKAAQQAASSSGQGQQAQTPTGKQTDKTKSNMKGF
# Sequence of SGK110 (human) (P0C264 whole entry, looked up): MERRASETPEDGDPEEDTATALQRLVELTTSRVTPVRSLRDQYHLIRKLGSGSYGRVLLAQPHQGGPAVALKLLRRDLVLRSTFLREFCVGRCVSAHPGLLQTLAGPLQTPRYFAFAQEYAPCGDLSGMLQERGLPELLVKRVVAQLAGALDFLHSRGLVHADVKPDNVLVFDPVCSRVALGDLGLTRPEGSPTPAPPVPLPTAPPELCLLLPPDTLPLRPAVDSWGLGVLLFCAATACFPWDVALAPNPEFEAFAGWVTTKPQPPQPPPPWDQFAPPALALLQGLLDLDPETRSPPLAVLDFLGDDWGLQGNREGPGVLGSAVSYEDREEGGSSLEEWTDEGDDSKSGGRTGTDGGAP
# Sequence of MAPK1 (human) (P28482 whole entry, looked up): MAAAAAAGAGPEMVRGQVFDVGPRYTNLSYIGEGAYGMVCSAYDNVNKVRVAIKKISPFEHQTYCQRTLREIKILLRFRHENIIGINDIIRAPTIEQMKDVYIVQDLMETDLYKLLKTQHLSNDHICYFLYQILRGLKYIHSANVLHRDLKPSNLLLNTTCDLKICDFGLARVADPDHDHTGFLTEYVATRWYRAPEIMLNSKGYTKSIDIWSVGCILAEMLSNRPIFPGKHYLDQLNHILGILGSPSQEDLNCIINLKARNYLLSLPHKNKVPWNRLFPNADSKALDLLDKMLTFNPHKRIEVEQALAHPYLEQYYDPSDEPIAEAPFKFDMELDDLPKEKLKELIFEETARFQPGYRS
# Sequence of MARK1 (human) (Q9P0L2 whole entry, looked up): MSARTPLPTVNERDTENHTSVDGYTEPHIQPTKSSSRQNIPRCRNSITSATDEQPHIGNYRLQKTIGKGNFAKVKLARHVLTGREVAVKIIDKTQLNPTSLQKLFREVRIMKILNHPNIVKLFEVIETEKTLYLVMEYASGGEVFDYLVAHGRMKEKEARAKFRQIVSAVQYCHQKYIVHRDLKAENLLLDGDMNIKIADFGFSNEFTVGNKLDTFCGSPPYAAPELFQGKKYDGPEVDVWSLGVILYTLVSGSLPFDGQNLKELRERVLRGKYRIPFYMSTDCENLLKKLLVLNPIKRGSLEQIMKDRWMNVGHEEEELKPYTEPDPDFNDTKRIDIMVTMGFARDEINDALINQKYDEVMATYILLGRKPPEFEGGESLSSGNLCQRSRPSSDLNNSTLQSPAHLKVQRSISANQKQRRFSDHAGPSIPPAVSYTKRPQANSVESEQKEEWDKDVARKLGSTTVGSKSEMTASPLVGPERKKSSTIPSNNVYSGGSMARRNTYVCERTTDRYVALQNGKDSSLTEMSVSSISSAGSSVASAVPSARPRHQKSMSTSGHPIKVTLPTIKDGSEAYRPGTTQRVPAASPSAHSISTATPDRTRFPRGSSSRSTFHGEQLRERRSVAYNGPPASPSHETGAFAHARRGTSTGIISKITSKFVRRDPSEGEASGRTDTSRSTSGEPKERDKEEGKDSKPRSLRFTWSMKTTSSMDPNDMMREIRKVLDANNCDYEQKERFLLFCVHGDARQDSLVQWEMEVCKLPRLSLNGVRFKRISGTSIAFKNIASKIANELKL
# Sequence of SRPK1 (human) (Q96SB4 whole entry, looked up): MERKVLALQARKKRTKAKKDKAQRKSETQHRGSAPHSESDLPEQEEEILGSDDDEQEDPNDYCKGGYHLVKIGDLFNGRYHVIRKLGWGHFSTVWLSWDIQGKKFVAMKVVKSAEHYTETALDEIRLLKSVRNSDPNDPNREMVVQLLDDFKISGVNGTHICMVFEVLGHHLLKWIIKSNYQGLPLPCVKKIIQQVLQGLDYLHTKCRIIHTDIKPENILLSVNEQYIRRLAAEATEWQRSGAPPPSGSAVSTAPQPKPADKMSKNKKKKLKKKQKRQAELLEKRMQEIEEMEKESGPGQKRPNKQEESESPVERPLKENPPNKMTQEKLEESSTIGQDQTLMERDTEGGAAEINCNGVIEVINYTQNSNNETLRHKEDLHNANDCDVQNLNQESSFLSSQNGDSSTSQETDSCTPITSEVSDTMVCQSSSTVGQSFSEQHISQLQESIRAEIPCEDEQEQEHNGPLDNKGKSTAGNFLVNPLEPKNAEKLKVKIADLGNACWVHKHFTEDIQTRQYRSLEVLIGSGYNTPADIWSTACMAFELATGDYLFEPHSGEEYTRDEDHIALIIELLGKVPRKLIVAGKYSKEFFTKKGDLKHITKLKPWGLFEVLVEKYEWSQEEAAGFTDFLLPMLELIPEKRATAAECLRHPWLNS
# Sequence of MAP3K9 (human) (P80192 whole entry, looked up): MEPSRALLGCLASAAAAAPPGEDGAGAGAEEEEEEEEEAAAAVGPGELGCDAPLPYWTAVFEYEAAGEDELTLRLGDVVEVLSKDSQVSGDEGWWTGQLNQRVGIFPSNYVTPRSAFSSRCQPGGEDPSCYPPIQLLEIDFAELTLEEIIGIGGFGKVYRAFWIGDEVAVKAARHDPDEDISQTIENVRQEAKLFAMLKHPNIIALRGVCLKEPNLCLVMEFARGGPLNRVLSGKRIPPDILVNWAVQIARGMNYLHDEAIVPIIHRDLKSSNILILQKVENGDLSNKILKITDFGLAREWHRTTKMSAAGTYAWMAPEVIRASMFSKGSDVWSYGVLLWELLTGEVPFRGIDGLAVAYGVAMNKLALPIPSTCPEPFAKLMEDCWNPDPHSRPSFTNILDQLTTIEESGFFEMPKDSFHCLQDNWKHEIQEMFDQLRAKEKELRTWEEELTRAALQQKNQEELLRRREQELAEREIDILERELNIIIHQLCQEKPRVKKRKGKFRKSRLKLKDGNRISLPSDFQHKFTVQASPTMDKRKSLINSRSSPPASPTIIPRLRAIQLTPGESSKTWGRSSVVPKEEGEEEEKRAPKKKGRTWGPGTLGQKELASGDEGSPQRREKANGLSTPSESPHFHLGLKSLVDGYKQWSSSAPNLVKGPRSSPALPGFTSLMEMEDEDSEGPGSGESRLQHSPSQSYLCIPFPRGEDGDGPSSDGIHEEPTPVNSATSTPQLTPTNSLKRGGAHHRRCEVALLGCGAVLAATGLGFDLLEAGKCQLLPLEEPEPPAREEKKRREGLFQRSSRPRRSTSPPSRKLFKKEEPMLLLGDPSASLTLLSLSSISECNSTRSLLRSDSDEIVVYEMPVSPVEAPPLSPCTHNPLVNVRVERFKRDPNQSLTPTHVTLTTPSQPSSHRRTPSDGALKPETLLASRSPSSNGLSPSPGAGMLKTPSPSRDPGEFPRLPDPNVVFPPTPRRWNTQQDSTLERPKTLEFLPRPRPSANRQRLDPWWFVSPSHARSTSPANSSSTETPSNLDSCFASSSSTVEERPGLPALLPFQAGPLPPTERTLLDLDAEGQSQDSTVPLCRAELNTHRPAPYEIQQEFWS
# Sequence of CSNK2A2 (human) (P19784 whole entry, looked up): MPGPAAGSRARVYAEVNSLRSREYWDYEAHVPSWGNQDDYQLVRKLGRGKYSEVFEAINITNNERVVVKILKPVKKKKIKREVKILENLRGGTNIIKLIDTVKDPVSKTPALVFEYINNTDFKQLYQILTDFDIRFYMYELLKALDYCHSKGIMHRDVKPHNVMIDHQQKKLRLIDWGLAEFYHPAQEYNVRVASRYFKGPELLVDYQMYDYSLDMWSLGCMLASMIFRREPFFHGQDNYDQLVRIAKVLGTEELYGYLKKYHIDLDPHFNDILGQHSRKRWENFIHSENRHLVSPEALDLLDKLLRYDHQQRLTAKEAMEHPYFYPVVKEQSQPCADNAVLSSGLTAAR
# Sequence of MAPK12 (human) (P53778 whole entry, looked up): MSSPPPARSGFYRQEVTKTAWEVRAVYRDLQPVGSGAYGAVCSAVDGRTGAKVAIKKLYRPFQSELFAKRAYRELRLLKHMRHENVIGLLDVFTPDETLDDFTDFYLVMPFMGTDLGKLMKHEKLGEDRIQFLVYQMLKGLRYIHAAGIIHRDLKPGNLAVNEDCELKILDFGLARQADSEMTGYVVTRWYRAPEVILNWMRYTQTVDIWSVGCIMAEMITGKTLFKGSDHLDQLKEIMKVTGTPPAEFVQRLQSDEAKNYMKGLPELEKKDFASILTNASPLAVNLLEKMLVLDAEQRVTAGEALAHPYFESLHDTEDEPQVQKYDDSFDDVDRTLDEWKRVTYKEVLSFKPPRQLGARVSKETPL
Structure (SMILES),"kinase still bound, per cent of control (AXL (human)) [%]","kinase still bound, per cent of control (BRSK1 (human)) [%]","kinase still bound, per cent of control (CAMK2D (human)) [%]","kinase still bound, per cent of control (CASK (human)) [%]","kinase still bound, per cent of control (CHUK (human)) [%]","kinase still bound, per cent of control (CLK1 (human)) [%]","kinase still bound, per cent of control (CSNK1A1 (human)) [%]","kinase still bound, per cent of control (CSNK2A1 (human)) [%]","kinase still bound, per cent of control (CSNK2A2 (human)) [%]","kinase still bound, per cent of control (DDR2 (human)) [%]","kinase still bound, per cent of control (DYRK1A (human)) [%]","kinase still bound, per cent of control (EGFR (human)) [%]","kinase still bound, per cent of control (EIF2AK1 (human)) [%]","kinase still bound, per cent of control (EPHA8 (human)) [%]","kinase still bound, per cent of control (FLT4 (human)) [%]","kinase still bound, per cent of control (IRAK1 (human)) [%]","kinase still bound, per cent of control (LIMK2 (human)) [%]","kinase still bound, per cent of control (MAP2K1 (human)) [%]","kinase still bound, per cent of control (MAP2K2 (human)) [%]","kinase still bound, per cent of control (MAP2K3 (human)) [%]",further results
O=C(Nc1cccc(Nc2ncc(Br)c(NCCc3cnc[nH]3)n2)c1)N1CCCC1,1.2,7.6,46,67,4.1,13,28,0.3,0,65,12,47,100,94,0.05,0.25,59,0.15,0.2,23,"kinase still bound, per cent of control (MAP3K9 (human)): 0.45%; kinase still bound, per cent of control (MAPK1 (human)): 77%; kinase still bound, per cent of control (MAPK12 (human)): 65%; kinase still bound, per cent of control (MARK1 (human)): 0.45%; kinase still bound, per cent of control [1]: 2.4%; kinase still bound, per cent of control (MST1R (human)): 70%; kinase still bound, per cent of control (PAK1 (human)): 36%; kinase still bound, per cent of control (PIM3 (human)): 69%; kinase still bound, per cent of control (RET (human)): 0.1%; kinase still bound, per cent of control [2]: 0.05%; kinase still bound, per cent of control (RIOK3 (human)): 0.5%; kinase still bound, per cent of control (ROCK2 (human)): 0.55%; kinase still bound, per cent of control (RPS6KA5 KD2 (human)): 31%; kinase still bound, per cent of control (SGK110 (human)): 0.95%; kinase still bound, per cent of control (SRC (human)): 4%; kinase still bound, per cent of control (SRPK1 (human)): 4.2%; kinase still bound, per cent of control (TAOK2 (human)): 5.3%; kinase still bound, per cent of control (TNK2 (human)): 18%; kinase still bound, per cent of control [3]: 0%; kinase still bound, per cent of control (VRK2 (human)): 12%"
COc1ccc(N(C(=O)Oc2c(C)cccc2C)c2ccnc(Nc3ccc(N4CCN(C)CC4)cc3)n2)c(OC)c1,17,68,100,90,92,84,71,66,95,0,75,0.4,100,0.2,16,19,0,38,46,66,"kinase still bound, per cent of control (MAP3K9 (human)): 0.6%; kinase still bound, per cent of control (MAPK1 (human)): 87%; kinase still bound, per cent of control (MAPK12 (human)): 75%; kinase still bound, per cent of control (MARK1 (human)): 24%; kinase still bound, per cent of control [1]: 1.6%; kinase still bound, per cent of control (MST1R (human)): 16%; kinase still bound, per cent of control (PAK1 (human)): 6.8%; kinase still bound, per cent of control (PIM3 (human)): 92%; kinase still bound, per cent of control (RET (human)): 0.1%; kinase still bound, per cent of control [2]: 66%; kinase still bound, per cent of control (RIOK3 (human)): 5.1%; kinase still bound, per cent of control (ROCK2 (human)): 88%; kinase still bound, per cent of control (RPS6KA5 KD2 (human)): 93%; kinase still bound, per cent of control (SGK110 (human)): 44%; kinase still bound, per cent of control (SRC (human)): 0.05%; kinase still bound, per cent of control (SRPK1 (human)): 23%; kinase still bound, per cent of control (TAOK2 (human)): 2.4%; kinase still bound, per cent of control (TNK2 (human)): 0%; kinase still bound, per cent of control [3]: 100%; kinase still bound, per cent of control (VRK2 (human)): 100%"

# — the kinase profiling compilation of Christmann-Franck et al. (2016)
